Activity, inhibition and IC50 data for 47 compounds are collected here from ChEMBL document CHEMBL5149970 (J Med Chem, 2021).

The source made the active and inactive calls. The rule behind the calls is not given here.

The subject of one series is CFU-GM. The series can be described thus: Inhibition of colony formation in human CFU-GM cells assessed as reduction in colony number and size at 1 uM incubated for 14 days by crystal violet staining based analysis. The format is toxicity, cell-based. The settings on record: 336 h, time 14 day.
`COc1cccc2c1C(=O)c1c(O)c3c(c(O)c1C2=O)C[C@@](O)(C(=O)CO)C[C@@H]3O[C@H]1C[C@H](N)[C@H](O)[C@H](C)O1` [DOXORUBICIN]: the Activity result is “Toxic”.

Another series has as its system EU-1. The series can be described thus: Inhibition of MDM2/XIAP IRES mRNA interaction in human EU-1 cells assessed as increase in caspase-3 cleavage at 5 uM measured for 24 hrs by western blot analysis. The format is cell-based.
Conditions: not given
A general note: In western blotting, separated proteins are transferred to a membrane and probed.
In the case of `Cc1ccc(NS(=O)(=O)c2ccc3c(c2)C2C=CCC2C(c2ccc(C(=O)O)cc2)N3)cc1C` (stereo unspecified), the inhibition result was “Active”.

Another series relates to EU-1. The series can be described thus: Inhibition of MDM2/XIAP IRES mRNA interaction in human EU-1 cells assessed as increase in caspase-9 cleavage at 5 uM measured for 24 hrs by western blot analysis.
Conditions: not given
The format is cell-based.
As to `Cc1ccc(NS(=O)(=O)c2ccc3c(c2)C2C=CCC2C(c2ccc(C(=O)O)cc2)N3)cc1C` (stereo unspecified), the inhibition result was “Active”.

Test system in another series: not listed separately
Put plainly: Antiproliferative activity against human EU-1 cells assessed as inhibition of cell growth incubated for 48 hrs by WST assay. The format is functional, cell-based. The settings on record: EU-1, 48 h.
With `COC(=O)c1ccc(C2Nc3c(Cl)cc(S(=O)(=O)Nc4ccc(C)c(C)c4)cc3C3OCCC23)cc1` (stereo unspecified), the IC50 was > 50 µM.
Turning to `CC(=O)c1cccc(C2Nc3ccc(S(=O)(=O)Nc4ccc(C)c(C)c4)cc3C3OCCC23)c1` (stereo unspecified), the IC50 was 2 µM.
The same measure, in the same setting: to `COC(=O)c1ccc(C2Nc3ccc(S(=O)(=O)Nc4ccc(C)c(C)c4)cc3C3OCCCC23)cc1` (stereo unspecified) belongs 4.6 µM; to `Cc1ccc(N(C)S(=O)(=O)c2ccc3c(c2)C2OCCC2C(c2ccc(C(=O)C(C)C)cc2)N3C)cc1C` (stereo unspecified), 1.2 µM.
The same measure, in the same setting: as for `COC(=O)c1ccc(C2Nc3ccc(S(=O)(=O)Nc4ccc(C)c(C)c4)cc3C3NCCC23)cc1` (stereo unspecified), the figure is 3.5 µM; as for `Cc1ccc(NS(=O)(=O)c2ccc3c(c2)C2C=CCC2C(c2ccc(C(=O)O)cc2)N3)cc1C` (stereo unspecified), 7.5 µM.
As to `Cc1ccc(N(C)S(=O)(=O)c2ccc3c(c2)C2OCCC2C(c2ccc(C(=O)C(C)C)cc2)N3)cc1C` (stereo unspecified), the IC50 was 1.6 µM.
On the same count and under the same terms, as for `Cc1ccc(NS(=O)(=O)c2ccc3c(c2)C2C=CCC2C(c2ccc(C(=O)C(C)C)cc2)N3)cc1C` (stereo unspecified), the figure is 2.7 µM; as for `Cc1ccc(NS(=O)(=O)c2ccc3c(c2)C2NCCC2C(c2ccc(C(=O)C(C)C)cc2)N3)cc1C` (stereo unspecified), 3.8 µM.
On the same count and under the same terms, to `Cc1cc(NS(=O)(=O)c2ccc3c(c2)C2OCCC2C(c2ccc(C(=O)C(C)C)cc2)N3)ccc1F` (stereo unspecified) belongs 2.9 µM.
On the same count and under the same terms, to `CC(C)C(=O)c1ccc(C2Nc3ccc(S(=O)(=O)Nc4ccc(Cl)c(Cl)c4)cc3C3OCCC23)cc1` (stereo unspecified) belongs 5.6 µM.
Regarding `Cc1cc(NS(=O)(=O)c2ccc3c(c2)C2OCCC2C(c2ccc(C(=O)C(C)C)cc2)N3)ccc1C(F)(F)F` (stereo unspecified), the IC50 stood at 7.2 µM.
The same measure, in the same setting: to `Cc1ccc(NS(=O)(=O)c2ccc3c(c2)C2NCCC2C(c2ccc(C(=O)O)cc2)N3)cc1C` (stereo unspecified) belongs > 50 µM.
Still for that read-out and setting: to `Cc1ccc(NS(=O)(=O)c2ccc3c(c2)C2OCCC2C(c2cccc4ccccc24)N3)cc1C` (stereo unspecified) belongs 6.1 µM; to `Cc1ccc(NS(=O)(=O)c2ccc3c(c2)C2OCCC2C(c2ccc(C(=O)C4CC4)cc2)N3)cc1C` (stereo unspecified), 5.2 µM.
Same read-out and setting: as for `Cc1cc(NS(=O)(=O)c2ccc3c(c2)C2OCCC2C(c2ccc(C(=O)C(C)C)cc2)N3)ccc1Cl` (stereo unspecified), the figure is 6.3 µM.
On to `COC(=O)c1ccc(C2Nc3ccc(S(=O)(=O)Nc4ccc(C)c(C)c4)cc3C3c4ccccc4CC23)cc1` (stereo unspecified), for which the IC50 came out at 18.3 µM.
Same read-out and setting: to `Cc1ccc(NS(=O)(=O)c2ccc3c(c2)C2OCCC2C(c2ccc(S(C)(=O)=O)cc2)N3)cc1C` (stereo unspecified) belongs 4.1 µM.
Same read-out and setting: as for `COC(=O)c1ccc(C2Nc3ccc(S(=O)(=O)Nc4ccc(C)c(C)c4)cc3C3C=CCC32)cc1` (stereo unspecified), the figure is 4.7 µM; as for `CCCC(=O)c1ccc(C2Nc3ccc(S(=O)(=O)Nc4ccc(C)c(C)c4)cc3C3OCCC23)cc1` (stereo unspecified), 2.9 µM; as for `C=CC(=O)c1ccc(C2Nc3ccc(S(=O)(=O)Nc4ccc(C)c(C)c4)cc3C3OCCC23)cc1` (stereo unspecified), 30 µM.
The same measure, in the same setting: to `CC(C)C(=O)c1ccc(C2Nc3ccc(S(=O)(=O)Nc4ccc(Br)c(Br)c4)cc3C3OCCC23)cc1` (stereo unspecified) belongs 5.2 µM.
For the compound `Cc1ccc(NS(=O)(=O)c2ccc3c(c2)C2OCCC2C(c2ccc(C(=O)O)cc2)N3)cc1C` (stereo unspecified), the IC50 was > 50 µM.
Still for that read-out and setting: to `Cc1ccc(NS(=O)(=O)c2ccc3c(c2)[C@@H]2OCC[C@@H]2[C@@H](c2ccc(C(=O)C(C)C)cc2)N3)cc1C` belongs 1.9 µM; to `Cc1ccc(NS(=O)(=O)c2ccc3c(c2)C2OCCC2C(c2ccc(C(=O)C4CCCCC4)cc2)N3)cc1C` (stereo unspecified), 3.1 µM.
Same read-out and setting: to `Cc1ccc(NS(=O)(=O)c2ccc3c(c2)C2OCCC2C(c2ccc(Br)cc2)N3)cc1C` (stereo unspecified) belongs 3.6 µM; to `CC(=O)c1ccc(C2Nc3ccc(S(=O)(=O)Nc4ccc(C)c(C)c4)cc3C3OCCC23)cc1` (stereo unspecified), 0.5 µM; to `Cc1ccc(NS(=O)(=O)c2ccc3c(c2)C2OCCC2C(c2ccc(C(=O)c4ccccc4)cc2)N3)cc1C` (stereo unspecified), 3.2 µM.
On to `Cc1ccc(NS(=O)(=O)c2ccc3c(c2)C2OCCC2C(c2ccc(C(=O)C(C)C)cc2)N3)cc1` (stereo unspecified), for which the IC50 was determined as 3.3 µM.
On the same count and under the same terms, as for `COC(=O)c1ccc(C2Nc3cc(Cl)c(S(=O)(=O)Nc4ccc(C)c(C)c4)cc3C3OCCC23)cc1` (stereo unspecified), the figure is > 50 µM; as for `Cc1ccc(NS(=O)(=O)c2cc3c(cc2Cl)NC(c2ccc(S(C)(=O)=O)cc2)C2CC=CC32)cc1C` (stereo unspecified), > 50 µM; as for `Cc1ccc(NS(=O)(=O)c2ccc3c(c2)C2CCCC2C(c2ccc(C(=O)C(C)C)cc2)N3)cc1C` (stereo unspecified), 7 µM.
The same measure, in the same setting: as for `CC(C)C(=O)c1ccc(C2Nc3ccc(S(=O)(=O)Nc4ccccc4)cc3C3OCCC23)cc1` (stereo unspecified), the figure is 3.2 µM; as for `Cc1ccc(NS(=O)(=O)c2ccc3c(c2)C2C=CCC2C(c2ccc(S(C)(=O)=O)cc2)N3)cc1C` (stereo unspecified), 6.2 µM.
On the same count and under the same terms, as for `Cc1ccc(NS(=O)(=O)c2ccc3c(c2)C2OCCC2C(c2cccc(C(=O)C(C)C)c2)N3)cc1C` (stereo unspecified), the figure is 3.6 µM; as for `Cc1ccc(NS(=O)(=O)c2ccc3c(c2)C2OCCC2C(c2ccc(C(=O)C(C)C)cc2)N3)cc1Cl` (stereo unspecified), 1.6 µM.
As to `Cc1ccc(NS(=O)(=O)c2ccc3c(c2)[C@H]2OCC[C@H]2[C@H](c2ccc(C(=O)C(C)C)cc2)N3)cc1C`, the IC50 came out at 2.4 µM.
Still for that read-out and setting: as for `Cc1ccc(NS(=O)(=O)c2ccc3c(c2)C2c4ccccc4CC2C(c2ccc(C(=O)O)cc2)N3)cc1C` (stereo unspecified), the figure is 20.5 µM; as for `Cc1cccc(NS(=O)(=O)c2ccc3c(c2)C2OCCC2C(c2ccc(C(=O)C(C)C)cc2)N3)c1` (stereo unspecified), 1.4 µM.
Still for that read-out and setting: to `COC(=O)c1ccc(C2Nc3ccc(S(=O)(=O)Nc4ccc(C)c(C)c4)cc3C3OCCC23)cc1` (stereo unspecified) belongs 2.2 µM; to `Cc1ccc(NS(=O)(=O)c2ccc3c(c2Cl)C2C=CCC2C(c2ccc(S(C)(=O)=O)cc2)N3)cc1C` (stereo unspecified), 23.4 µM.
Same read-out and setting: to `Cc1ccc(NS(=O)(=O)c2ccc3c(c2)[C@H]2OCC[C@H]2[C@@H](c2ccc(C(=O)C(C)C)cc2)N3)cc1C` belongs 0.3 µM; to `Cc1ccc(NS(=O)(=O)c2ccc3c(c2)C2OCCCC2C(c2ccc(C(=O)O)cc2)N3)cc1C` (stereo unspecified), > 50 µM.
Take `Cc1ccc(NS(=O)(=O)c2ccc3c(c2)C2OCCC2C(c2ccc(C(O)C(C)C)cc2)N3)cc1C` (stereo unspecified): the IC50 is 2 µM.
Take `Cc1ccc(NS(=O)(=O)c2ccc3c(c2)C2OCCC2C(c2ccc(C(C)C)cc2)N3)cc1C` (stereo unspecified): the IC50 worked out at 4.2 µM.
On the same count and under the same terms, to `Cc1ccc(NS(=O)(=O)c2ccc3c(c2)[C@@H]2OCC[C@@H]2[C@H](c2ccc(C(=O)C(C)C)cc2)N3)cc1C` belongs 1.6 µM.

Test system in a further series: not listed separately
The series can be described thus: Inhibition of colony formation in human BFU-E cells assessed as reduction in colony number and size at 1 uM incubated for 14 days by crystal violet staining based analysis. The format is toxicity, cell-based. The settings on record: 336 h, time 14 day.
In the case of `COc1cccc2c1C(=O)c1c(O)c3c(c(O)c1C2=O)C[C@@](O)(C(=O)CO)C[C@@H]3O[C@H]1C[C@H](N)[C@H](O)[C@H](C)O1` [DOXORUBICIN], the Activity result is given as “Toxic”.

Another series has as its system EU-1. The series can be described thus: Inhibition of MDM2/XIAP IRES mRNA interaction in human EU-1 cells assessed as increase in PARP cleavage at 5 uM measured for 24 hrs by western blot analysis. The class given is cell-based.
Conditions: not given
For `Cc1ccc(NS(=O)(=O)c2ccc3c(c2)C2C=CCC2C(c2ccc(C(=O)O)cc2)N3)cc1C` (stereo unspecified), the inhibition entry is “Active”.

Usually IC50 stands for the concentration needed to halve the response being measured.
